Test results reported in the NIST ThermoML archive (doi:10.1021/je901067c).

What was measured:
[1] = xn = mol fraction of the nth substance listed; conditions: 101 kPa, Liquid; for viscosity: Capillary tube (Ostwald / Ubbelohde) method
[2] = refractive index (Na D-line) (dimensionless); xn = mol fraction of the nth substance listed; conditions: 101 kPa, Liquid, Standard Abbe refractometry

CCC(C)=O [butanone] + CCCCCO
Conditions | mass density, 298.15 K [kg/m3] | mass density, 308.15 K [kg/m3] | mass density, 318.15 K [kg/m3] | refractive index, 298.15 K | refractive index, 308.15 K | refractive index, 318.15 K | viscosity, 298.15 K [mPa·s] | viscosity, 308.15 K [mPa·s] | viscosity, 318.15 K [mPa·s]
[1], x1 = 0.088 | 809.94 | 802.26 | 794.44 | – | – | – | 2.557 | 2.011 | 1.608
[1], x1 = 0.1632 | 809.15 | 801.25 | 793.21 | – | – | – | 1.997 | 1.616 | 1.321
[1], x1 = 0.2427 | 808.31 | 800.16 | 791.89 | – | – | – | 1.592 | 1.304 | 1.097
[1], x1 = 0.3549 | 807.11 | 798.62 | 789.99 | – | – | – | 1.202 | 1.009 | 0.852
[1], x1 = 0.4434 | 806.15 | 797.39 | 788.5 | – | – | – | 0.983 | 0.835 | 0.721
[1], x1 = 0.5597 | 804.87 | 795.76 | 786.5 | – | – | – | 0.773 | 0.667 | 0.585
[1], x1 = 0.6518 | 803.85 | 794.44 | 784.88 | – | – | – | 0.648 | 0.57 | 0.5
[1], x1 = 0.7401 | 802.85 | 793.14 | 783.31 | – | – | – | 0.554 | 0.492 | 0.443
[1], x1 = 0.8477 | 801.59 | 791.54 | 781.36 | – | – | – | 0.485 | 0.427 | 0.381
[1], x1 = 0.9355 | 800.55 | 790.21 | 779.73 | – | – | – | 0.42 | 0.38 | 0.345
[1], x1 = 1 | 799.76 | 789.21 | 778.52 | – | – | – | 0.391 | 0.361 | 0.334
[2], x1 = 0.088 | – | – | – | 1.4049 | 1.4014 | 1.3976 | – | – | –
[2], x1 = 0.1632 | – | – | – | 1.4031 | 1.3997 | 1.3957 | – | – | –
[2], x1 = 0.2427 | – | – | – | 1.401 | 1.3976 | 1.3937 | – | – | –
[2], x1 = 0.3549 | – | – | – | 1.3979 | 1.3943 | 1.3905 | – | – | –
[2], x1 = 0.4434 | – | – | – | 1.3953 | 1.3914 | 1.3878 | – | – | –
[2], x1 = 0.5597 | – | – | – | 1.3915 | 1.3873 | 1.3838 | – | – | –
[2], x1 = 0.6518 | – | – | – | 1.3883 | 1.3838 | 1.3804 | – | – | –
[2], x1 = 0.7401 | – | – | – | 1.3851 | 1.3804 | 1.377 | – | – | –
[2], x1 = 0.8477 | – | – | – | 1.381 | 1.376 | 1.3724 | – | – | –
[2], x1 = 0.9355 | – | – | – | 1.3776 | 1.3725 | 1.3686 | – | – | –
[2], x1 = 1 | – | – | – | 1.375 | 1.37 | 1.3657 | – | – | –

CCCC(C)O (stereo not drawn) [pentan-2-ol] + CCC(C)=O
Conditions | mass density, 298.15 K [kg/m3] | mass density, 308.15 K [kg/m3] | mass density, 318.15 K [kg/m3] | refractive index, 298.15 K | refractive index, 308.15 K | refractive index, 318.15 K | viscosity, 298.15 K [mPa·s] | viscosity, 308.15 K [mPa·s] | viscosity, 318.15 K [mPa·s]
[1], x2 = 0 | 805.3 | 797 | 788.37 | – | – | – | 3.478 | 2.361 | 1.772
[1], x2 = 0.0824 | 804 | 795.54 | 786.83 | – | – | – | 2.664 | 1.778 | 1.344
[1], x2 = 0.1612 | 802.99 | 794.34 | 785.5 | – | – | – | 2.066 | 1.381 | 1.094
[1], x2 = 0.2401 | 802.04 | 793.29 | 784.32 | – | – | – | 1.69 | 1.105 | 0.897
[1], x2 = 0.3519 | 800.97 | 791.97 | 782.76 | – | – | – | 1.347 | 0.865 | 0.721
[1], x2 = 0.4396 | 800.31 | 791.07 | 781.66 | – | – | – | 1.131 | 0.731 | 0.642
[1], x2 = 0.5608 | 799.65 | 790.15 | 780.47 | – | – | – | 0.886 | 0.587 | 0.514
[1], x2 = 0.6494 | 799.34 | 789.63 | 779.91 | – | – | – | 0.743 | 0.518 | 0.457
[1], x2 = 0.7403 | 799.2 | 789.23 | 779.15 | – | – | – | 0.623 | 0.462 | 0.407
[1], x2 = 0.8491 | 799.26 | 789.02 | 778.67 | – | – | – | 0.505 | 0.406 | 0.366
[1], x2 = 0.9384 | 799.49 | 789.09 | 778.55 | – | – | – | 0.436 | 0.371 | 0.338
[2], x2 = 0 | – | – | – | 1.4032 | 1.399 | 1.395 | – | – | –
[2], x2 = 0.0824 | – | – | – | 1.4014 | 1.3974 | 1.3937 | – | – | –
[2], x2 = 0.1612 | – | – | – | 1.3998 | 1.3959 | 1.3923 | – | – | –
[2], x2 = 0.2401 | – | – | – | 1.398 | 1.3941 | 1.3906 | – | – | –
[2], x2 = 0.3519 | – | – | – | 1.3952 | 1.3914 | 1.3877 | – | – | –
[2], x2 = 0.4396 | – | – | – | 1.3929 | 1.389 | 1.3852 | – | – | –
[2], x2 = 0.5608 | – | – | – | 1.3895 | 1.3854 | 1.3813 | – | – | –
[2], x2 = 0.6494 | – | – | – | 1.3868 | 1.3826 | 1.3782 | – | – | –
[2], x2 = 0.7403 | – | – | – | 1.384 | 1.3796 | 1.375 | – | – | –
[2], x2 = 0.8491 | – | – | – | 1.3803 | 1.3757 | 1.3711 | – | – | –
[2], x2 = 0.9384 | – | – | – | 1.3772 | 1.3724 | 1.3679 | – | – | –
